From patent US20160374944A1, “COMPOSITIONS AND METHODS FOR TREATING AND PREVENTING CANCER BY TARGETING AND INHIBITING CANCER STEM CELLS” (priority 2011, published 2016)

Tests used:
[1] = test system: TCF/LEF activity in pancreatic CSCs; assay: TCF/LEF responsive reporter; assay type: cell-based, human
Method: (A) Pancreatic CSCs were treated with EGCG (0-60 μM) for 48 h. At the end of incubation period, the expression of Snail, ZEB1 and Slug was measured by q-RT-PCR. […] (B) Transwell migration assay. Pancreatic CSCs were plated in the top chamber of the transwell and treated with EGCG (0-60 μM) for 24 h. Cells migrated to the lower chambered were fixed with methanol, stained with crystal violet and counted. […] (C) Matrigel invasion assay. CSCs were plated onto the Matrigel-coated membrane in the top chamber of the transwell and treated with EGCG (0-60 μM) for 48 h. Cells invaded to the lower chambered were fixed with methanol, stained with crystal violet and counted. […] (D) Effects of EGCG on TCF-1/LEF activity. […] Transduced CSCs were treated with EGCG (0-60) for 48 h and the GFP fluorescence was measured. […] Cell viability was measured by trypan blue assay. […] At the end of incubation period, colonies were counted. […] Cells invaded to the lower chambered were fixed with methanol, stained with crystal violet and counted. […] Cells migrated to the lower chambered were fixed with methanol, stained with crystal violet and counted. […] Apoptosis was measured by TUNEL assay. […] Transduced CSCs were treated with EGCG (40 μM) with or without quercetin (20 μM) for 48 hrs and the luciferase activity was measured.

Prostate CSCs [2] = assay: colony formation in soft agar; assay type: cell-based, human; settings: 21 days; embelin 0-6 μM, rottlerin 0-2 μM
Method: (§1) In particular, embelin is shown to inhibit spheroid and colony formation, and induce caspase-3 and apoptosis. (A) Prostate CSCs were grown in CSC medium and treated with embelin (0-6 μM) for 7 days to obtain primary spheroids. At the end of incubation period, spheroids were collected, reseeded and treated with embelin for another week to obtain secondary spheroids. Cell viability in spheroids was measured by trypan blue assay at the end of 7 and 14 days. […] (B) Prostate CSCs were seeded in soft agar and treated with embelin (0-6 μM) for 21 days. […] (C and D) Activation of caspase-3 and induction of apoptosis is shown.
as §1, with “(A)” for “In particular, embelin is shown to inhibit spheroid and colony formation, and induce caspase-3 and apoptosis. (A)”, “rottlerin (0-2” for “embelin (0-6”, “rottlerin” for “embelin”, “apoptosis.” for “apoptosis is shown.”

Prostate CSCs [3] = assay: caspase-3 activity; assay type: cell-based, human; settings: 24 h; embelin 0-6 μM, rottlerin 0-2 μM
Method: as §1
as §1, with “(A)” for “In particular, embelin is shown to inhibit spheroid and colony formation, and induce caspase-3 and apoptosis. (A)”, “rottlerin (0-2” for “embelin (0-6”, “rottlerin” for “embelin”, “apoptosis.” for “apoptosis is shown.”

Prostate CSCs [4] = assay: apoptosis; assay type: cell-based, human; settings: embelin 0-6 μM 48 h; rottlerin 0-2 μM 24 h
Method: as §1
as §1, with “(A)” for “In particular, embelin is shown to inhibit spheroid and colony formation, and induce caspase-3 and apoptosis. (A)”, “rottlerin (0-2” for “embelin (0-6”, “rottlerin” for “embelin”, “apoptosis.” for “apoptosis is shown.”

[5] = test system: TCF/LEF-1 reporter activity in prostate CSCs; assay: TCF/LEF1-responsive dual luciferase reporter; assay type: cell-based, human; settings: rottlerin 0-2 μM, 24 h, dual luciferase assay
Method: (§2) FIG. 17 graphs showing the regulation of Shh, Notch and TGFβ pathways by rottlerin. […] The expression of Patched-1, Patched-2, SMO, Gli1 and Gli2 was measured by qRT-PCR. […] Data were normalized with GAPDH. (D) Prostate CSCs were treated with rottlerin (0-1 μM) for 24 h. The expression of Notch1, Notch3 and JAG1 was measured by qRT-PCR. (E) TCF/LEF-1, Gli and Notch reporter activities. Prostate CSCs were transduced with a mixture of TCF/LEF1-, Gli-, or Notch-responsive firefly luciferase construct and Renilla luciferase construct (40:1) along with lipofectamine. After transduction, medium was changed and CSCs were treated with rottlerin (0-2 μM) for 24 h. […] (F) Immunofluorescence analysis of Gli1 and Gli2 expression in prostate CSCs. Green=Gli1 or Gli2; red=nucleus.

[6] = test system: Notch reporter activity in prostate CSCs; assay: Notch-responsive dual luciferase reporter; assay type: cell-based, human; settings: rottlerin 0-2 μM, 24 h, dual luciferase assay
Method: as §2

Pancreatic CSCs = assay: pancreatic CSCs xenografted sub-cutaneously in NSG mice; assay type: in vivo; settings: NOD/SCID/IL2R gamma mice, 20 mg/kg, 6 weeks
Method: (A) Pancreatic CSCs were orthotopically implanted in pancreas of NSG mice, and treated with or without sulforaphane 20 mg/kg, for 6 weeks, (B and C) Pancreatic CSCs were xenografted sub-cutaneously in NSG mice, and treated with or without rottlerin and embelin 20 mg/kg, for 6 weeks, (D and E) Prostate CSCs were xenografted sub-cutaneously in NSG mice, and treated with or without rottlerin and embelin 20 mg/kg, for 6 weeks. At the end of the treatment, weights of tumors in treated mice were compared with control mice.

Brain CSCs = assay: cell viability by XTT assay; assay type: cell-based; settings: 3 days; 0-20 μM
Method: (A-B) Brain CSCs were treated with sulforaphane (0-20 μM), and honokiol (0-20 μM) for 3 days, and cell viability was measured by XTT assay.

[7] = test system: human pancreatic cancer cells

O=C(O[C@@H]1Cc2c(O)cc(O)cc2O[C@@H]1c1cc(O)c(O)c(O)c1)c1cc(O)c(O)c(O)c1 [EGCG, epigallocatechin gallate]
TCF/LEF activity ([1]; EGCG 0-60, 48 h): inhibited TCF/LEF activity | TCF/LEF transcriptional activity ([1]; EGCG 40 μM with or without quercetin 20 μM, 48 hrs, luciferase): inhibited

CC(=O)c1c(O)c(C)c(O)c(Cc2c(O)c3c(c(C(=O)/C=C/c4ccccc4)c2O)OC(C)(C)C=C3)c1O [rottlerin]
colony formation in soft agar (Prostate CSCs [2]): inhibited | caspase-3 activity (Prostate CSCs [3]): induces | apoptosis (Prostate CSCs [4]): induces | TCF/LEF1 responsive reporter activity [5]: inhibited the TCF/LEF1, Gli1 and Notch responsive reporter activities in a dose-dependent manner | Notch responsive reporter activity [6]: inhibited the TCF/LEF1, Gli1 and Notch responsive reporter activities in a dose-dependent manner | tumor growth (weights of tumors vs control mice) (Pancreatic CSCs): inhibit tumor growth

C[S+]([O-])CCCCN=C=S (stereo not shown) [sulforaphane]
cell viability (Brain CSCs): inhibit cell viability | growth of human pancreatic cancer cells [7]: inhibits the growth
